In the supplement of paper PMC12613149:
Where a name gives a salt, the structure may show the parent alone.

Experiments:
[1] = collision cross section (TIMS, N2 drift gas) of the primary ion; higher = larger gas-phase ion size
[2] = reversed-phase LC retention time (C18, 15 min MeOH gradient); higher = more hydrophobic / later elution
[3] = ionization mode: ESI+, ion species: [M+H]+
[4] = ionization mode: ESI-, ion species: [M-H]-

collision cross section [1, 3] [Å²] | reversed-phase LC retention time [2, 3] [min] | collision cross section [1, 4] [Å²] | reversed-phase LC retention time [2, 4] [min] | Structure (SMILES)
139.91 | 8.87 | 137.07 | 6.92 | Cc1nc(=O)c(-c2ccccc2)n[nH]1 [Metamitron-desamino]
– | – | 166.94 | 16.3 | CCCCCCCCCCCCOS(=O)(=O)O [Dodecyl sulfate]
178.97 | 16.6 | – | – | CCCCCCCCCCCC(=O)NCC(C)O (stereo not given) [Lauric isopropanolamide]
177.66 | 13.4 | – | – | CNCCC(Oc1ccc(C(F)(F)F)cc1)c1ccccc1 (stereo not given) [Fluoxetine]
138.67 | 7.54 | – | – | CCN(CC)c1nc(=O)cc(C)[nH]1 [2-(Diethylamino)-6-methylpyrimidin-4-one]
– | – | 138.96 | 12.4 | Oc1ccc2c(c1)[nH]c1ccccc12 [2-Hydroxycarbazole]
259.69 | 13 | – | – | CC[C@H]1OC(=O)[C@H](C)[C@@H](O[C@H]2C[C@@](C)(OC)[C@@H](O)[C@H](C)O2)[C@H](C)[C@@H](O[C@@H]2O[C@H](C)C[C@H](N(C)C)[C@H]2O)[C@](C)(O)C[C@@H](C)C(=O)[C@H](C)[C@@H](O)[C@]1(C)O [Erythromycin]
– | – | 151.01 | 8.54 | O=C(c1ccc(O)cc1O)c1ccc(O)cc1O [2,2',4,4'-Tetrahydroxybenzophenone]
282.62 | 19.5 | – | – | CCCCC(CC)COC(=O)c1ccc(Nc2nc(Nc3ccc(C(=O)OCC(CC)CCCC)cc3)nc(Nc3ccc(C(=O)OCC(CC)CCCC)cc3)n2)cc1 (stereo not given)
233.31 | 9.72 | 232.48 | 8.1 | CC1OC(OCC2OC(Oc3c(-c4ccc(O)c(O)c4)oc4cc(O)cc(O)c4c3=O)C(O)C(O)C2O)C(O)C(O)C1O (stereo not given) [Rutin]
168.14 | 14.1 | 171.91 | 10.1 | CC(=O)CC(c1ccccc1)c1c(O)c2ccccc2oc1=O (stereo not given) [Warfarin]
126.56 | 10.5 | 122.14 | 10.6 | O=c1[nH]c2ccccc2s1 [2-Hydroxybenzothiazole]
206.28 | 11.2 | 198.36 | 10 | CCCCc1ncc(/C=C(\Cc2cccs2)C(=O)O)n1Cc1ccc(C(=O)O)cc1 [Eprosartan]
125.68 | 8.77 | 122.13 | 10.6 | O=c1[nH]sc2ccccc12 [1,2-Benzisothiazolinone]
170.12 | 15.4 | – | – | COC(=O)C(c1ccccc1Cl)N1CCc2sccc2C1 (stereo not given) [Clopidogrel]
209.29 | 17.4 | – | – | CCCCCCOC(=O)c1ccccc1C(=O)c1ccc(N(CC)CC)cc1O [Uvinul A Plus]
144.44 | 7.67 | – | – | Cc1c(C=O)c(=O)n(-c2ccccc2)n1C [4-Formyl-antipyrine]

collision cross section [1, 3] [Å²] | reversed-phase LC retention time [2, 3] [min] | collision cross section [1, 4] [Å²] | reversed-phase LC retention time [2, 4] [min] | Structure (SMILES)
148.26 | 12.4 | – | – | O=C(Nc1ccccc1)Nc1ccccc1 [1,3-Diphenylurea]
187.34 | 13.8 | – | – | CN(C/C=C/C#CC(C)(C)C)Cc1cccc2ccccc12 [Terbinafine]
235.31 | 8.03 | 232.92 | 11.7 | CC1(C)CC(NC(=O)c2cccc(C(=O)NC3CC(C)(C)NC(C)(C)C3)c2)CC(C)(C)N1 [Nylostab S-EED]
185.61 | 17.9 | – | – | CCCCC(CC)COC(=O)c1ccc(N(C)C)cc1 (stereo not given)
– | – | 197.85 | 13.6 | CC(=O)OCC(=O)[C@@]1(O)CC[C@H]2[C@@H]3CCC4=CC(=O)CC[C@]4(C)[C@@]3(F)[C@@H](O)C[C@@]21C [Fludrocortisone-21-acetate]
221.69 | 13.6 | – | – | CN(C)C(=O)C(CCN1CCC(O)(c2ccc(Cl)cc2)CC1)(c1ccccc1)c1ccccc1 [Loperamide]
228.68 | 16.5 | – | – | CCCCc1oc2ccccc2c1C(=O)c1cc(I)c(OCCN(CC)CC)c(I)c1 [Amiodarone]
149.81 | 13 | 146.03 | 13.2 | CN(C)C(=O)Nc1ccc(Cl)c(Cl)c1 [1-(3,4-Dichlorophenyl)-3,3-dimethylurea]
145.3 | 12.6 | – | – | c1ccc2sc(N3CCOCC3)nc2c1 [2(4-morpholinyl)benzothiazole]
231.26 | 14.2 | 237.73 | 14.6 | CCCc1nc2c(C)cc(-c3nc4ccccc4n3C)cc2n1Cc1ccc(-c2ccccc2C(=O)O)cc1 [Telmisartan]
277.32 | 14.1 | – | – | CC[C@H]1OC(=O)[C@H](C)[C@@H](O[C@H]2C[C@@](C)(OC)[C@@H](O)[C@H](C)O2)[C@H](C)[C@@H](O[C@@H]2O[C@H](C)C[C@H](N(C)C)[C@H]2O)[C@](C)(O)C[C@@H](C)C(=NOCOCCOC)[C@H](C)[C@@H](O)[C@]1(C)O [Roxithromycin]
175.29 | 12.4 | 173.87 | 13 | COC(=O)Nc1nc2ccc(C(=O)c3ccccc3)cc2[nH]1 [Mebendazole]
– | – | 122.01 | 2.26 | CC1=CC(=O)NS(=O)(=O)O1 [Acesulfame]
232.51 | 15.1 | 228.86 | 14.6 | CC(C)c1c(C(=O)Nc2ccccc2)c(-c2ccccc2)c(-c2ccc(F)cc2)n1CCC(O)CC(O)CC(=O)O (stereo not given) [Atorvastatin]
– | – | 198.83 | 13.7 | CC1(C)O[C@@H]2C[C@H]3[C@@H]4C[C@H](F)C5=CC(=O)C=C[C@]5(C)[C@@]4(F)[C@@H](O)C[C@]3(C)[C@]2(C(=O)CO)O1 [Fluocinolone acetonide]
208.26 | 18.4 | 219.38 | 17.6 | C[C@H]1[C@H](C)CC[C@]2(C(=O)O)CC[C@]3(C)C(=CC[C@@H]4[C@@]5(C)CC[C@H](O)C(C)(C)[C@@H]5CC[C@]43C)[C@H]12 [Ursolic acid]

Structure (SMILES) | collision cross section [1, 3] [Å²] | reversed-phase LC retention time [2, 3] [min] | collision cross section [1, 4] [Å²] | reversed-phase LC retention time [2, 4] [min]
COc1cc(C)c(C(=O)c2c(OC)ccc(Br)c2C)c(OC)c1OC [Metrafenone] | 184.27 | 15.9 | – | –
OC(Cc1ccccc1Cl)(Cn1cncn1)C1(Cl)CC1 (stereo not given) [Prothioconazole-desthio] | 168.06 | 14.9 | – | –
CC12CC1(C)C(=O)N(c1cc(Cl)cc(Cl)c1)C2=O (stereo not given) [Procymidone] | – | – | 172.16 | 15
Nc1ccc(Oc2ccc(N)cc2)cc1 [4,4'-Oxydianiline] | 159.82 | 4.06 | – | –
CCOP(=O)(OCC)OC(=CCl)c1ccc(Cl)cc1Cl [Chlorfenvinphos] | 169.3 | 15.7 | – | –
CC(C)CC(C)NC1=CC(=O)C(Nc2ccccc2)=CC1=O (stereo not given) [6PPD-Quinone] | 181.85 | 15.6 | – | –
N#Cc1nn(-c2c(Cl)cc(C(F)(F)F)cc2Cl)c(N)c1S(=O)(=O)C(F)(F)F [Fipronil sulfone] | – | – | 178.27 | 16.1
CC1(C(=O)Nc2ccc(O)c(Cl)c2Cl)CCCCC1 [Fenhexamid] | 166.46 | 14.8 | 172.09 | 14.6
N#Cc1nn(-c2c(Cl)cc(C(F)(F)F)cc2Cl)c(N)c1C(F)(F)F [Fipronil desulfinyl] | – | – | 168.16 | 15.4
CN1COCN(Cc2cnc(Cl)s2)/C1=N/[N+](=O)[O-] [Thiamethoxam] | 159.96 | 7.66 | – | –
Cc1ccc(NC(=O)N(C)C)cc1Cl [Chlorotoluron] | 147.58 | 12.5 | – | –
CC(O)(CS(=O)(=O)c1ccc(F)cc1)C(=O)Nc1ccc(C#N)c(C(F)(F)F)c1 (stereo not given) [Bicalutamide] | 205.43 | 13.4 | 184.69 | 13.7
O=C(O)C(F)(F)C(F)(F)C(F)(F)C(F)(F)C(F)(F)C(F)(F)C(F)(F)F [Perfluorooctanoic acid] | – | – | 155.67 | 14.7
CC(Cc1ccc(C(C)(C)C)cc1)CN1CCCCC1 (stereo not given) [Fenpropidin] | 166.93 | 13.6 | – | –
Oc1ccc(C2(c3ccc(O)cc3)c3ccccc3-c3ccccc32)cc1 [Fluorene-9-bisphenol] | – | – | 194.22 | 15.3
COC(=O)N(OC)c1ccccc1COc1ccn(-c2ccc(Cl)cc2)n1 [Pyraclostrobin] | 184.99 | 15.8 | – | –
Oc1ccc(C2(c3ccc(O)cc3)CCCCC2)cc1 [Bisphenol Z] | – | – | 173.12 | 15.3
CC(=NC#N)N(C)Cc1ccc(Cl)nc1 [Acetamiprid] | 153.22 | 9.29 | 148.19 | 9.38
O=C(NC(=O)c1c(F)cccc1F)Nc1ccc(Cl)cc1 [Diflubenzuron] | 163.34 | 15.1 | 167.93 | 15.5
CC(Oc1ccc(Oc2ncc(C(F)(F)F)cc2Cl)cc1)C(=O)O (stereo not given) [Haloxyfop-P] | 181.48 | 15.5 | 190.86 | 14
CCN(CC)c1ccccc1 [Diethylphenylamine] | 129.02 | 6.93 | – | –
CC(C)(C)CC(C)(C)c1ccc(Nc2ccc(C(C)(C)CC(C)(C)C)cc2)cc1 [N,N-Bis(4-tert-octylphenyl)amine] | 220.04 | 20.2 | – | –
CCC(C)c1cc([N+](=O)[O-])cc([N+](=O)[O-])c1O (stereo not given) [Dinoseb] | – | – | 149.61 | 12.3
COC=C(C(=O)OC)c1ccccc1Oc1cc(Oc2ccccc2C#N)ncn1 [Azoxystrobin] | 196.56 | 13.8 | – | –
Nc1ccccc1-c1ccccc1 [2-Aminobiphenyl] | 141.24 | 12.8 | – | –
